Results reported in patent publication US9345744B2, “Peptide-based collagen modulators for wound healing and tissue repair” (MUSC FOUNDATION FOR RESEARCH DEVELOPMENT, priority 2012, dated 2016).
“Also recorded” adds a separate entry of the source. Like-named read-outs stand apart in the source and are kept apart here.

What was measured:
HMVECs = experiment: ATP release from endothelial cells; type: cell-based, human
Protocol: FIG. 15. ATP is released from endothelial cells in response to low Ca^2+ and the inflammatory cytokine IL-6. HMVECs were treated for 5 hours with either nothing or IL-6 (0.01 ng/mL). After the 5 hr incubation, HBSS (w/Ca^2+ and Mg^2+)—25 mM HEPES was added to one set of controls (“Control”) and the IL-6 treated cells for 5 min. To the other set of control wells, HBSS (w/o Ca^2+ and Mg^2+)—25 mM HEPES was added as a positive control for Cx43 hemichannel-mediated ATP release (“Low Ca^2+”). The error bars represent the standard error for replicates within the same experiment.
The possibility that Cx43 acts as a mediator of inflammation through hemichannel mediated release of ATP was further examined Studies on ATP release in the HeLa cell models, as well as primary human microvascular endothelial cells (HMVECs), were performed. […] However, the inventors also observed that, in preliminary experiments, ATP released in response to low Ca^2+ was not inhibited by treatment with mefloquine, a commonly used connexin channel blocker. Endothelial cells may also release ATP through vesicular exocytotic mechanisms in a Ca^2+ dependent manner (Bodin and Burnstock, 2001; McDonald et al., 2010). Pannexin channels, which can also mediate ATP release, are similarly sensitive to mefloquine (Lohman et al., 2012; Bodin et al, 2001).

[1] = system: Sprague Dawley rats, latissimus dorsi muscle; experiment: Silicon wafer implant with exogenous ATP or apyrase, histology at 24 hours; type: in vivo, rat; details: for inflammatory infiltrate in the implant region: implant plus exogenous agent
Source text: FIG. 16. A composite panel of microscopy images taken from H&E stained sections of muscle tissue adjacent to the silicon implant. […] The other images in the panel are high magnification showing areas of high inflammation and necrosis bottom two panels and relatively low inflammation away from the implant site, upper right. The top right set of images is from the tissue adjacent to the implant that had also been treated with exogenous ATP. […] And that by modulating the ATP signal we can potentially modulate the initial inflammatory reaction.
15 male Sprague Dawley rats underwent unilateral implantation of silicon wafer implants. Three animals received implants only, three received implants plus exogenous ATP, three received implants plus exogenous apyrase, an enzyme that scavenges ATP, three underwent surgery alone without an implant, and three received a percutaneous injection of exogenous ATP into the latissimus dorsi muscle. The implants were harvested after 24 hours to evaluate the extent of inflammatory infiltrate and preservation of muscle.

[2] = system: neonatal rat cardiac fibroblast cells; experiment: Western blot of collagen type I in conditioned media and cell lysates of peptide-treated neonatal cardiac fibroblasts; type: cell-based
Source text: Isolation and treatment of Neonatal Cardiac Fibroblasts with Cx43 based peptides (peptides used included ACT1, JM1, JM2, Antenapedia [ANT], reverse ACT1 [Rev], poly Arginine [poly r]). Neonatal cardiac fibroblasts (NHFs) were isolated from 3-4 day old rat hearts by collagenase digestion (100 U/mL) and differential attachment as previously described (Borg et al., 1984). All cells were maintained in Dulbecco's Modified Eagle Medium (DMEM) supplemented with 10% Fetal Bovine Serum and 100 U/mL penicillin G and 100 μg/mL streptomycin and used prior to passage four. For experiments, 40,000 NHFs were plated into the wells of a 24-well tissue culture plate and grown for 24-48 hours. On the day of treatment, media was removed from each well and replaced with fresh media containing 50 μg/mL L-ascorbic acid-2-phosphate; Sigma Chemical Co., St. Louis, Mo.). The appropriate volume of each peptide (resuspended in sterile, deionized 18 MΩ resistivity water) was added to achieve the desired final concentration (30, 90, 180 μM peptide concentrations were tested). Culture plates were incubated overnight in a 37° C. incubator with 5% CO2.
Conditioned culture media was collected from each well and stored at −20° C. for analysis of soluble collagen. Cellular protein, including insoluble collagen and collagen still within the NHFs, were isolated by adding 100-200 μL of cell lysis buffer (0.01 M Tris, pH 7.4, 0.001 M Sodium Orthovanadate, 1% sodium dodecylsulfate [SDS]) to each well and incubating 10 minutes at room temperature. Prior to addition, cell lysis buffer was warmed to facilitate solubilzation of SDS and 100 μL of Halt protease inhibitor (Pierce Biotechnology, Rockford, Ill.) was added per 10 mL buffer to be used. […] Protein concentrations of cell lysates were determined using a Micro BCA assay (Pierce). […] The presence of collagen was determined by probing the membranes with a rabbit anti-mouse collagen type I antibody (MD Biosciences) at 1:20,000 dilution in blocking buffer (5% milk in Tris-buffered saline) followed by a goat anti-rabbit IgG horseradish peroxidase conjugated antibody at 1:100,000 (Southern Biotech Associates) and detection with Pierce SuperSignal Femto West detection reagent (Pierce).
To assess the activity of JM1 and JM2 peptides with respect to collagen production and their potential in mediating wound healing, cardiac fibroblasts were treated with these two peptides and their effectiveness compared to that for the previous described Cx43 peptide ACT1. NHFs were treated with various concentrations of JM1, JM2, ACT1, and ANT (Antenapedia) peptides, vehicle (water) or left untreated and the production of collagen both in the culture media and cell-associated collagen assessed by western blotting. […]

[3] = system: implants in skeletal muscle; experiment: Inflammatory infiltrate at implants, myeloperoxidase stain; type: in vivo; details: 24 hour time point
Source text: In attempting to quantify the neutrophil infiltrate using a myeloperoxidase stain, the inventors observed that some of the cells stained darker than others. Upon further investigation, these cells were not neutrophils as but rather were macrophages.

Cx43 hemichannel = target: T1, Cx43 hemichannel (Homo sapiens, UniProt P17302); details: Rhett et al., 2011; cited from earlier work
T1 construct: expressed in transfected cells
T1 sequence (P17302 whole entry): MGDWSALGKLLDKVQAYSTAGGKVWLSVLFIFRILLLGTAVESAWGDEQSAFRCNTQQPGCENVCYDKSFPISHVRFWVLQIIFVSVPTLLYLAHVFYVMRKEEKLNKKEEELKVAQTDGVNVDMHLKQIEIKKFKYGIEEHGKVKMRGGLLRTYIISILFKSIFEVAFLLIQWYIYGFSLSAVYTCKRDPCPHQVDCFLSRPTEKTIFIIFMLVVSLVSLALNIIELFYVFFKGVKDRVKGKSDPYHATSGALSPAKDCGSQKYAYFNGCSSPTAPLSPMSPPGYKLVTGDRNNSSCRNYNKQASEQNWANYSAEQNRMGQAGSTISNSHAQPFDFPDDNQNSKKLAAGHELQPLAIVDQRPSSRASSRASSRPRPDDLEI

[4] = system: myocytes from neonatal rats; details: 30 μM, 5 days; cited from earlier work
NIH-3T3 cells = details: 30 μM, cited from earlier work
[5] = system: neonatal mouse skin wound; details: cited from earlier work
adult mouse skin wound = details: cited from earlier work
rat skin wound = details: cited from earlier work
CD1 mice, LV cryo-injury = details: cited from earlier work
adult rat brain injury = details: 100 μM in 2% collagen vehicle; cited from earlier work
SD rat cornea = details: cited from earlier work
ARPE19 cell = details: cited from earlier work
[6] = cited from earlier work
[7] = system: C57BL/6 mouse, laser-induced CNV; details: cited from earlier work
[8] = system: Sprague-Dawley rats with silicone disks; details: cited from earlier work
[9] = system: U87 MG glioblastoma cells; details: cited from earlier work
C6 glioma cell line = details: cited from earlier work

## IL-6: the inflammatory cytokine IL-6
HMVECs; IL-6 0.01 ng/mL, 5 hours
  ATP release: increased ATP release

## OC(c1cc(C(F)(F)F)nc2c(C(F)(F)F)cccc12)C1CCCCN1 (stereo not shown) [mefloquine]
HMVECs; treatment with blocker, preliminary experiments
  ATP released in response to low Ca2+: not inhibited

## apyrase
[1]
  inflammatory infiltrate in the implant region: significantly reduced the inflammatory infiltrate; also recorded: marked decrease in inflammatory infiltrate

## RQPKIWFPNRRKPWKKRPRPDDLEI [ACT1, Cx43 carboxyl-terminal peptide incorporating aas 373 to 382 of Cx43, U.S. Pat. No. 7,786,074]
[2]; 30, 90, 180 μM, overnight
  secretion/production of mature, fully processed type I collagen (conditioned media): decreased levels of fully processed collagen I a1 chains; also recorded: dose-dependent reduction
[2]; ACT1, highest doses of JM1 and JM2
  higher molecular weight collagen species in cell lysate: absence of higher molecular weight collagen species
[2]; cell lysates, JM1, JM2 at maximum dose tested
  mature / processed type I collagen in NHF cell lysate: slight decreases in processed collagen I a1 chains
[2]; cultured fibroblasts, FIGS. 1 and 2
  collagen synthesis, processing and secretion from fibroblasts: reduced collagen processing and secretion
[3]
  primary inflammatory infiltrate: macrophages
Cx43 hemichannel
  Cx43 hemichannel activity: inhibits Cx43 hemichannel activity
[4]
  extent of Cx43 gap junction formation between myocytes: greatly increased
NIH-3T3 cells; 24 hours
  repopulation of scratch injury: few cells repopulating the area
NIH-3T3 cells
  proliferation of the cells: reduced proliferation
[5]; 60 μM in 20% pluronic gel, 48 hours
  wound closure, inflammation, swelling: significantly more closed, less inflamed, less swollen
[5]; 60 μM, 7 days
  wound appearance / scarring: smoother and less scarred appearance
Adult mouse skin wound; 100 μM in 30% pluronic gel, 10-14 day time course
  closure, inflammation, healing and scarring of excisional injuries: closed faster, were less inflamed in appearance, healed faster and scarred less
Adult mouse skin wound; 7 and 10 days post-wounding
  scarring/overall appearance: significantly improved
Adult mouse skin wound; 24 hr and 4 days post-wounding
  wound redness: significantly decreased
Adult mouse skin wound; 24 hr, 4, 7 and 10 days
  wound size: significantly smaller in size
Rat skin wound; 150 μM peptide, 30 days
  scar area and scar tissue volume / scar size: significantly (p<0.05) smaller
Rat skin wound; versus the other 4 wounds
  wound closure rates: significantly faster closure rates
CD1 mice, LV cryo-injury; 8 week time course
  LV diastolic and systolic function: significant improvement
CD1 mice, LV cryo-injury; mouse, in vivo
  scar uniformity: significantly increased scar uniformity
CD1 mice, LV cryo-injury; pacing and S1-S2 protocols
  frequency and severity of arrhythmias: dramatically reduced
Adult rat brain injury
  NeuN immunolabeled neurons proximal to the HFM: higher numbers
  density of GFAP-positive astrocytes adjacent the HFM: much lower density
SD rat cornea; 24 hrs
  corneal re-epithelialization: re-epithelializing much faster than control corneas
SD rat cornea; 72 hrs
  corneal re-epithelialization: significantly greater re-epithelialization
SD rat cornea; rat, in vivo
  corneal closure and regeneration: faster closure and more complete corneal regeneration
ARPE19 cell; pre-treatment with peptide
  VEGF-dependent drop in TER: ameliorated the drop in TER; also recorded: blocked
[6]; 100 uM, corneal application, 20 and 40 minutes
  peptide in aqueous humor (anterior chamber): detectable level
[6]; 20 and 40 minutes
  peptide in vitreous humor (posterior chamber), Western blotting: Lower levels of peptide could also be detected
[6]; corneal application
  peptide in retinal pigment epithelial layer: detectable in the retinal pigment epithelial layer
[7]; relative to PBS controls
  CNV lesion size / injury spread: significantly reduced; also recorded: reduced CNV injury spread
[7]; relative to controls
  retinal function (ERG): improved retinal function
[8]; capsulectomies days 1-28
  neutrophil infiltration: attenuating neutrophil infiltration
[8]; rat, in vivo
  presence of contractile myofibroblasts: reducing the continued presence of contractile myofibroblasts
  type I collagen deposition around the implant: reducing type I collagen deposition around the implant
  vascularity of the capsule tissue: increasing vascularity of the capsule tissue
[9]; Boyden chamber
  motility across a porous membrane: significantly decreased
[9]
  aggregation: higher degree of aggregation
C6 glioma cell line; C6, Boyden chamber
  motility across a porous membrane: significantly decreased
C6 glioma cell line; C6
  adhesive properties: did not change
  cell morphology: altered morphology

## VEGF
ARPE19 cell; VEGF alone, by 4 hours post-application
  TER: significantly (p<0.05) reduces TER; also recorded: rapid deterioration

## Nc1ncnc2c1ncn2[C@@H]1O[C@H](COP(=O)(O)OP(=O)(O)OP(=O)(O)O)[C@@H](O)[C@H]1O [ATP]
[1]
  inflammatory infiltrate in the implant region: profound increase in inflammatory infiltrate
[1]; percutaneous injection, no implant
  inflammatory infiltrate in skeletal muscle: more inflammatory infiltrate than the surgery alone; also recorded: causes significant inflammation
